Source: patent US7521560B2, “2-substituted quinoline compounds and their uses” (Rigel Pharmaceuticals, Inc., priority 2004, dated 2009)

What follows are molecules tested on cultured human mast cells (CHMC) (assay: CHMC low cell density IgE activation: tryptase release assay). Details: Homo sapiens, Mast cell, anti-IgE-induced tryptase release, low density CHMC.
Format: cell-based
Method: Inhibition of degranulation was measured at low density (and could also be measures at high cell density) by quantifying the release of the granule specific factor tryptase. Tryptase was quantified using a fluorogenic substrates as described in its respective examples. Histamine, TNFα, IL-6, IL-13 and LTC4 can be quantified, if desired, using the following commercial ELISA kits: histamine (Immunotech #2015, Beckman Coulter), TNFα (Biosource #KHC3011), IL-6 (Biosource #KMC0061), IL-13 (Biosource #KHC0132) and LTC4 (Cayman Chemical #520211). The protocols for various assays are provided below.
A second phase is performed to convert the expanded CD34-negative progenitor cells into differentiated mucosal mast cells. These mucosal cultured human mast cells (“CHMC”) are derived from CD34+ cells isolated from umbilical cord blood and treated to form a proliferated population of CD34-negative progenitor cells, as described above. To produce the CD34-negative progenitor cells, the resuspension cycle for the culture was the same as that described above, except that the culture was seeded at a density of 425,000 cells/mL and 15% additional media was added on about day four or five without performing a cell count. Also, the cytokine composition of the medium was modified such that it contained SCF (200 ng/mL) and recombinant human IL-6 (200 ng/mL; Peprotech, Catalog No. 200-06 reconstituted to 100 ug/mL in sterile 10 mM acetic acid) (“CM/SCF/IL-6 medium”).
To duplicate 96-well U-bottom plates (Costar 3799) add 65 ul of compound dilutions or control samples that have been prepared in MT [137 mM NaCl, 2.7 mM KCl, 1.8 mM CaCl2, 1.0 mM MgCl2, 5.6 mM Glucose, 20 mM Hepes (pH 7.4), 0.1% Bovine Serum Albumin, (Sigma A4503)] containing 2% MeOH and 1% DMSO. Pellet CHMC cells (980 rpm, 10 min) and resuspend in pre-warmed MT. Add 65 ul of cells to each 96-well plate. Depending on the degranulation activity for each particular CHMC donor, load 1000-1500 cells/well. Mix four times followed by a 1 hr incubation at 37° C. During the 1 hr incubation, prepare 6× anti-IgE solution [rabbit anti-human IgE (1 mg/ml, Bethyl Laboratories A80-109A) diluted 1:167 in MT buffer]. Stimulate cells by adding 25 ul of 6× anti-IgE solution to the appropriate plates. Add 25 ul MT to un-stimulated control wells. Mix twice following addition of the anti-IgE. Incubate at 37° C. for 30 minutes. During the 30 minute incubation, dilute the 20 mM tryptase substrate stock solution [(Z-Ala-Lys-Arg-AMC.2TFA; Enzyme Systems Products, #AMC-246)] 1:2000 in tryptase assay buffer [0.1 M Hepes (pH 7.5), 10% w/v Glycerol, 10 uM Heparin (Sigma H-4898) 0.01% NaN3]. Spin plates at 1000 rpm for 10 min to pellet cells. Transfer 25 ul of supernatant to a 96-well black bottom plate and add 100 ul of freshly diluted tryptase substrate solution to each well. Incubate plates at room temperature for 30 min. Read the […] of the plates at 355 nm/460 nm on a spectrophotometric plate reader.
The results of low density CHMC assays for release of tryptase (Section 6.2.2) are provided for examplary quinoline compounds in TABLE 1, supra. In TABLE 1, a value of “+” indicates an IC50 of 20 μM or less; a value of “++” indicates an IC50 of 10 μM or less; and a value of “+++” indicates an IIC50 of 5 μM or less.

Structure (SMILES) | IC50
Clc1ccc2nc(Nc3cc(-c4ccccc4)n[nH]3)ccc2c1 [Compound 1, 6-chloro-2-(3-phenyl-1H-pyrazol-5-ylamino)quinoline] | ≤ 5 µM
Clc1ccc2nc(Nc3n[nH]c(-c4ccccc4)c3Br)ccc2c1 [Compound 3, 2-(4-bromo-5-phenyl-1H-pyrazol-3-ylamino)-6-chloroquinoline] | ≤ 5 µM
NC(=O)c1[nH]cnc1Nc1ccc2cc(Cl)ccc2n1 [Compound 4, 2-(5-aminocarbonyl-1H-imidazol-4-ylamino)-6-chloroquinoline] | ≤ 5 µM
NC(=O)c1[nH]cnc1Nc1ccc2cccc(Cl)c2n1 [Compound 5, 2-(5-aminocarbonyl-1H-imidazol-4-ylamino)-8-chloroquinoline] | ≤ 5 µM
Clc1ccc2nc(Nc3cc(-c4cccs4)n[nH]3)ccc2c1 [Compound 9, 6-chloro-2-(3-thiophen-2-yl-1H-pyrazol-5-ylamino)quinoline] | ≤ 5 µM
Cc1cc(Nc2nc[nH]c2C(N)=O)nc2ccccc12 [Compound 15, 2-(5-aminocarbonyl-1H-imidazol-4-ylamino)-4-methylquinoline] | ≤ 10 µM
NC(=O)c1c[nH]nc1Nc1ccc2cc(Cl)ccc2n1 [Compound 16, 2-(4-aminocarbonyl-1H-pyrazol-3-ylamino)-6-chloroquinoline] | ≤ 10 µM
CCOC(=O)c1c[nH]nc1Nc1ccc2cccc(Cl)c2n1 [Compound 17, 8-chloro-2-(4-ethoxycarbonyl-1H-pyrazol-3-ylamino)quinoline] | ≤ 10 µM
CNC(=O)c1cc(Nc2nc[nH]c2C(N)=O)nc2ccccc12 [Compound 18, 2-(5-aminocarbonyl-1H-imidazol-4-ylamino)-4-methylaminocarbonylquinoline] | ≤ 10 µM
Oc1cccc2ccc(Nc3nc[nH]c3Cl)nc12 [Compound 21, 2-(5-chloro-1H-imidazol-4-ylamino)-8-hydroxyquinoline] | > 20 µM
NC(=O)c1[nH]cnc1Nc1cc(C(=O)N2CCOCC2)c2ccccc2n1 [Compound 22, 2-(5-aminocarbonyl-1H-imidazol-4-ylamino)-4-(4-morpholinocarbonyl)quinoline] | > 20 µM

Now from value to molecule:

IC50 | Structure (SMILES)
≤ 5 µM | Clc1cccc2ccc(Nc3n[nH]c(-c4ccccc4)c3Br)nc12 [Compound 2, 2-(4-bromo-5-phenyl-1H-pyrazol-3-ylamino)-8-chloroquinoline]
≤ 5 µM | NC(=O)c1c[nH]nc1Nc1ccc2cccc(Cl)c2n1 [Compound 6, 2-(4-aminocarbonyl-1H-pyrazol-3-ylamino)-8-chloroquinoline]
≤ 5 µM | Clc1cccc2ccc(Nc3cc(-c4ccccc4)n[nH]3)nc12 [Compound 7, 8-chloro-2-(3-phenyl-1H-pyrazol-5-ylamino)quinoline]
≤ 5 µM | Clc1cccc2ccc(Nc3cc(-c4cccs4)n[nH]3)nc12 [Compound 8, 8-chloro-2-(3-thiophen-2-yl-1H-pyrazol-5-ylamino)quinoline]
≤ 5 µM | COc1ccc(-c2cc(Nc3ccc4cccc(Cl)c4n3)n[nH]2)cc1 [Compound 10, 8-chloro-2-[5-(4-methoxyphenyl)-1H-pyrazol-3-ylamino]quinoline]
≤ 5 µM | COc1ccc(-c2cc(Nc3ccc4cc(Cl)ccc4n3)n[nH]2)cc1 [Compound 11, 6-chloro-2-[5-(4-methoxyphenyl)-1H-pyrazol-3-ylamino]quinoline]
≤ 5 µM | Cc1cc(Nc2ccc3cccc(Cl)c3n2)n[nH]1 [Compound 12, 8-chloro-2-(5-methyl-1H-pyrazol-3-ylamino)quinoline]
≤ 10 µM | CC(C)(C)c1cc(Nc2ccc3cccc(Cl)c3n2)n[nH]1 [Compound 13, 2-(5-tert-butyl-1H-pyrazol-3-ylamino)-8-chloroquinoline]
≤ 20 µM | Clc1cccc2ccc(Nc3cc[nH]n3)nc12 [Compound 19, 8-chloro-2-(1H-pyrazol-3-ylamino)quinoline]
≤ 20 µM | N#Cc1c[nH]nc1Nc1ccc2cccc(Cl)c2n1 [Compound 20, 8-chloro-2-(4-cyano-1H-pyrazol-3-ylamino)quinoline]

Same assay, conditions: Homo sapiens, Mast cell, anti-IgE-induced tryptase release, low density CHMC; stated in text

IC50 | Structure (SMILES)
> 20 µM | Oc1cccc2ccc(Nc3nc[nH]c3Cl)nc12 [Compound 21, 2-(5-chloro-1H-imidazol-4-ylamino)-8-hydroxyquinoline]
> 20 µM | NC(=O)c1[nH]cnc1Nc1cc(C(=O)N2CCOCC2)c2ccccc2n1 [Compound 22, 2-(5-aminocarbonyl-1H-imidazol-4-ylamino)-4-(4-morpholinocarbonyl)quinoline]

Same assay, conditions: referring to TABLE 1

Structure (SMILES) | activity in "prodrug" form
CCOC(=O)c1c[nH]nc1Nc1ccc2cccc(Cl)c2n1 [Compound 17, 8-chloro-2-(4-ethoxycarbonyl-1H-pyrazol-3-ylamino)quinoline] | active
CNC(=O)c1cc(Nc2nc[nH]c2C(N)=O)nc2ccccc12 [Compound 18, 2-(5-aminocarbonyl-1H-imidazol-4-ylamino)-4-methylaminocarbonylquinoline] | active

What follows are molecules tested on passive cutaneous anaphylaxis (PCA) response (assay: not given). Details: 8 mg/kg, i.p., 30 minutes pretreatment time, n=23 experiments.

Structure (SMILES) | inhibition of the PCA response
CN1CCC(=C2c3ccccc3C=Cc3ccccc32)CC1 [Cyproheptadine, cyproheptadine] | 61%+/−4

Same assay, conditions: highest dose, 50 mg/kg, i.p., 30 minutes pretreatment time

Structure (SMILES) | inhibition of the PCA response
CN(C)CCOC(c1ccccc1)c1ccccc1 [diphenhydramine] | up to 86%
